In patent US20250129021A1, “SMALL MOLECULE PROTEIN SYNTHESIS MODULATORS” (Interdict Bio, Inc., priority 2023, published 2025):

Assays:
Type in all cases: biochemical
MYC = test: In vitro transcription-translation (IVTT) assay, MYC reporter; details: IVTT assay, HeLa S3 lysate, MYC reporter, normalized sfGFP/mCherry ratio; half-log dilutions 30 μM-0.1 μM, 2 hrs at 30° C.
Method in brief: (§1)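 Reporter: mCherry, P2A, then 3×FLAG-target peptide-sfGFP fusion, IRES-initiated; HeLa S3 lysate IVTT; cpd dilutions 30 μM−0.1 μM half-log in 100% DMSO (dilution-plate conc); DNA added last; 2 h, 30° C; PBS quench.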

CCND1 = test: In vitro transcription-translation (IVTT) assay, CCND1 reporter; details: IVTT assay, HeLa S3 lysate, sfGFP/mCherry ratio
Method in brief: as §1

CCNTB1 = test: In vitro transcription-translation (IVTT) assay, CCNTB1 reporter; details: HeLa S3 lysate, sfGFP/mCherry ratio
Description: In vitro transcription-translation assay setup: Each assay includes a master mix containing lysate and shared components, a 96-well plate containing compound titrations for testing, a 96-well DNA plate with reporter constructs to be tested, 96-well skirted PCR plates, and 96-well flat-bottom, black, fluorescent assay plates. Reaction materials setup: (A) Master mix—15 mL conical tube (3 mL of HeLa S3 Lysate described above; 0.6 mL of ThermoFisher Accessory Proteins (#88882); 1.2 ml of ThermoFisher Reaction Mix (#88882); 0.54 mL of nuclease-free Water); (B) 96-Well Master Mix+Compound Plate (Half-log dilutions (30 μM−0.1 μM) of 4 compounds of interest are prepared in 100% DMSO); 96-Well DNA Plate (Five DNA constructs are plated into single columns within the plate. Row 1 of the column contains nuclease free H2O, all other wells contain 110 ng/μL plasmid DNA). Reactions are started by mixing 155 μL of master mix and 3.5 μL of compound serial dilutions, then 9.1 μL of master mix+compound mixture is aliquoted across 5 96-well plates. Reactions begin with final addition of 2 μL of DNA for a 11.1 μL reaction volume in each well. The entire plate is sealed, and incubated for 2 hrs at 30° C. After 2 hrs, quench the assay using 45 μL of PBS, and transfer 50 μL to a flat-bottom black microplate Quantify the sfGFP and mCherry signals from each well on each plate, taking 3 reads of each plate, and perform data analysis below.
In vitro transcription-translation assay data analysis: Each plate is read three times in channels for both sfGFP and mCherry signals. The average signal across these 3 reads is then calculated for further analysis. Control wells containing no DNA reporter are subtracted from reporter wells in the same column to remove auto-fluorescence of the lysate. Then, the ratio of sfGFP/mCherry is calculated per well, and these ratios are averaged across the triplicate experiments on the same plate. Finally, the ratio of each titration concentration is normalized to the no drug control to create the normalized stalling metric. The error on this measurement is determined by propagating error through the averaging and normalization steps. Values are plotted and fit for IC50 determination for each test sequence and titration of compound.

MCL-1 = test: In vitro transcription-translation (IVTT) assay, MCL-1 reporter; details: IVTT assay, HeLa S3 lysate, sfGFP/mCherry ratio; read-out: MCL1 IC50
Method in brief: as §1

| Compound | IC50 (MYC) [µM] | IC50 (CCND1) [µM] | IC50 (CCNTB1) [µM] | IC50 (MCL-1) [µM] |
| --- | --- | --- | --- | --- |
| COc1ccc(C[C@H]2NC[C@H](O)[C@H]2OC(=O)NCc2ccnc(N3CC4(CCC4)C3)c2)cc1 [V192068, (2R,3S,4S)-4-hydroxy-2-[(4-methoxyphenyl)methyl]pyrrolidin-3-yl N-[(2-{2-azaspiro[3.3]heptan-2-yl}pyridin-4-yl)methyl]carbamate] | < 10 | 10 to 20 | < 10 | < 10 |
| COc1ccc(C[C@H]2NC[C@H](O)[C@H]2OC(=O)NCC[C@@H]2CCCNC2)cc1 [V191903, (2R,3S,4S)-4-hydroxy-2-[(4-methoxyphenyl)methyl]pyrrolidin-3-yl N-{2-[(3S)-piperidin-3-yl]ethyl}carbamate] | < 10 | 10 to 20 | < 10 | < 10 |
| COc1ccc(C[C@H]2NC[C@H](O)[C@H]2OC(=O)NCC[C@H]2CCCN2C)cc1 [V192042, (2R,3S,4S)-4-hydroxy-2-[(4-methoxyphenyl)methyl]pyrrolidin-3-yl N-{2-[(2R)-1-methylpyrrolidin-2-yl]ethyl}carbamate] | > 30 | > 30 | 20 to 30 | > 30 |
| O=C(NCc1cccc(F)c1)O[C@@H]1[C@@H](O)CN[C@@H]1Cc1ccc(-c2ccc(C(F)(F)F)cc2)cc1 [V192083, (2R,3S,4S)-4-hydroxy-2-{[4′-(trifluoromethyl)-[1,1′-biphenyl]-4-yl]methyl}pyrrolidin-3-yl N-[(3-fluorophenyl)methyl]carbamate] | > 30 | > 30 | > 30 | > 30 |
| O=C(NCc1cccc(-n2ccnc2)c1)O[C@@H]1[C@@H](O)CN[C@@H]1Cc1ccc(-c2cnco2)cc1 [V192167, (2R,3S,4S)-4-hydroxy-2-{[4-(1,3-oxazol-5-yl)phenyl]methyl}pyrrolidin-3-yl N-{[3-(imidazol-1-yl)phenyl]methyl}carbamate] | < 10 | < 10 | < 10 | < 10 |
| O=C(NCC[C@H]1CCCN1)O[C@@H]1[C@@H](O)CN[C@@H]1Cc1ccc(-c2cnco2)cc1 [V192048, (2R,3S,4S)-4-hydroxy-2-{[4-(1,3-oxazol-5-yl)phenyl]methyl}pyrrolidin-3-yl N-{2-[(2R)-pyrrolidin-2-yl]ethyl}carbamate] | < 10 | < 10 | < 10 | < 10 |
| O=C(NCc1ccc2c(c1)CCNC2)O[C@@H]1[C@@H](O)CN[C@@H]1Cc1ccc(-c2cncs2)cc1 [V192109, (2R,3S,4S)-4-hydroxy-2-(4-(thiazol-5-yl)benzyl)pyrrolidin-3-yl ((1,2,3,4-tetrahydroisoquinolin-6-yl)methyl)carbamate] | < 10 | < 10 | < 10 | < 10 |
| COc1ccc(C[C@H]2NC[C@H](O)[C@H]2OC(=O)NCc2ccc(C3(N)CC3)cc2)cc1 [V192069, (2R,3S,4S)-4-hydroxy-2-[(4-methoxyphenyl)methyl]pyrrolidin-3-yl N-{[4-(1-aminocyclopropyl)phenyl]methyl}carbamate] | < 10 | < 10 | < 10 | < 10 |
| COc1ccc(C[C@H]2NC[C@H](O)[C@H]2OC(=O)NCC[C@H]2CCC3(CC3)N2)cc1 [V192043, (2R,3S,4S)-4-hydroxy-2-[(4-methoxyphenyl)methyl]pyrrolidin-3-yl N-{2-[(5R)-4-azaspiro[2.4]heptan-5-yl]ethyl}carbamate] | > 30 | > 30 | > 30 | > 30 |
| COc1ccc(C[C@H]2NC[C@H](O)[C@H]2OC(=O)NCC[C@@]2(C)CCCN2)cc1 [V192041, (2R,3S,4S)-4-hydroxy-2-(4-methoxybenzyl)pyrrolidin-3-yl (2-((R)-2-methylpyrrolidin-2-yl)ethyl)carbamate] | < 10 | 10 to 20 | < 10 | < 10 |
| O=C(NCCC1CCNCC1)O[C@@H]1[C@@H](O)CN[C@@H]1Cc1ccc(-c2ccc(C(F)(F)F)cc2)cc1 [V192052, (2R,3S,4S)-4-hydroxy-2-{[4′-(trifluoromethyl)-[1,1′-biphenyl]-4-yl]methyl}pyrrolidin-3-yl N-[2-(piperidin-4-yl)ethyl]carbamate] | > 30 | > 30 | > 30 | > 30 |
| O=C(NCCC1CCNCC1)O[C@@H]1[C@@H](O)CN[C@@H]1Cc1ccc(-c2ccc(F)c(F)c2)cc1 [V192051, (2R,3S,4S)-2-({3′,4′-difluoro-[1,1′-biphenyl]-4-yl}methyl)-4-hydroxypyrrolidin-3-yl N-[2-(piperidin-4-yl)ethyl]carbamate] | < 10 | < 10 | < 10 | < 10 |
| COc1ccc(C[C@H]2NC[C@H](O)[C@H]2OC(=O)NCCN2CCCS2(=O)=O)cc1 [V191944, (2R,3S,4S)-4-hydroxy-2-[(4-methoxyphenyl)methyl]pyrrolidin-3-yl N-[2-(1,1-dioxo-1lambda6,2-thiazolidin-2-yl)ethyl]carbamate] | < 10 | 10 to 20 | < 10 | < 10 |
| O=C(NCc1cccc(F)c1)O[C@@H]1[C@@H](O)CN[C@@H]1Cc1ccc(-c2nnc(C(F)(F)F)s2)cc1 [V192102, (2R,3S,4S)-4-hydroxy-2-({4-[5-(trifluoromethyl)-1,3,4-thiadiazol-2-yl]phenyl}methyl)pyrrolidin-3-yl N-[(3-fluorophenyl)methyl]carbamate] | 10 to 20 | > 30 | 10 to 20 | > 30 |
| O=C(NCc1ccc2c(c1)CCNC2)O[C@@H]1[C@@H](O)CN[C@@H]1Cc1ccc(-c2ccc(S(F)(F)(F)(F)F)cc2)cc1 [V192059, (2R,3S,4S)-4-hydroxy-2-{[4′-(pentafluoro-lambda6-sulfanyl)-[1,1′-biphenyl]-4-yl]methyl}pyrrolidin-3-yl N-(1,2,3,4-tetrahydroisoquinolin-6-ylmethyl)carbamate] | > 30 | > 30 | > 30 | > 30 |
| O=C(NCCC1CCNCC1)O[C@@H]1[C@@H](O)CN[C@@H]1Cc1ccc(-c2ccccc2)cc1 [V192050, (2R,3S,4S)-2-{[1,1′-biphenyl]-4-ylmethyl}-4-hydroxypyrrolidin-3-yl N-[2-(piperidin-4-yl)ethyl]carbamate] | 10 to 20 | > 30 | 10 to 20 | 10 to 20 |
| O=C(NCc1ccnc(N2CCC2)c1)O[C@@H]1[C@@H](O)CN[C@@H]1Cc1ccc(-c2ccc(C(F)(F)F)cc2)cc1 [V192071, (2R,3S,4S)-4-hydroxy-2-((4′-(trifluoromethyl)-[1,1′-biphenyl]-4-yl)methyl)pyrrolidin-3-yl ((2-(azetidin-1-yl)pyridin-4-yl)methyl)carbamate] | 20 to 30 | > 30 | 20 to 30 | 20 to 30 |
| COc1ccc(C[C@H]2NC[C@H](O)[C@H]2OC(=O)NCc2ccnc(N3CC(F)(F)C3)c2)cc1 [V192066, (2R,3S,4S)-4-hydroxy-2-[(4-methoxyphenyl)methyl]pyrrolidin-3-yl N-{[2-(3,3-difluoroazetidin-1-yl)pyridin-4-yl]methyl}carbamate] | < 10 | < 10 | 10 to 20 | < 10 |
